# Data as given in patent US9675591B2, “Methods for treating seizure disorders and pain” (THE REGENTS OF THE UNIVERSITY OF CALIFORNIA, priority 2013, dated 2017).
# Read-outs that look alike come from different tables or passages of the source.
# Columns and labels:
# [1] = Motor toxicity, horizontal screen test in mice; type: in vivo; settings: in vivo, ip, i.p. as solution, 10 min time point, read-out: TD50, neurological impairment (horizontal screen)
# Protocol: (§1) Abnormal neurological status in mice following SKA-19 administration was evaluated with the rotorod test. When a normal mouse is placed on a rod 1 inch in diameter that rotates at a speed of 6 rpm, the mouse can maintain equilibrium for a long time. Inability of the mouse to stay on the rotating rod in three trials for 1 min is taken as an indication of motor impairment. […] Mice were placed on a horizontally oriented grid (consisting of parallel 1.5-mm diameter rods situated 1 cm apart), and the grid was inverted. Animals that fell from the grid within 10 s were scored as impaired.
# (§2) The mouse maximal electroshock (MES) and 6 Hz seizure models were used. Motor toxicity was assessed using a modification of the horizontal screen test. ED50 values in the seizure models and TD50 values in the toxicity test were determined by nonlinear fitting of dose-response curves. […] Drugs solutions were injected intraperitoneally 10 min prior to administration of the electrical stimulus in a volume of 10 ml/kg body weight.
# mice = assay: Motor toxicity, horizontal screen test in mice; type: in vivo; settings: i.p. as solution, 10 min time point
# Protocol: as §1, §2
# [2] = tested on: pentylenetetrazole-induced seizures; assay: Subcutaneous Metrazol seizure test (scMET); type: in vivo
# Protocol: A dose of subcutaneous pentylenetetrazole (Metrazole, MET) which induces convulsions in 97% of animals (CD97: 85 mg/kg mice or 56.4 mg/kg rats) was injected into a loose fold of skin at the neck. Animals were placed in isolation cages and observed for 30 min for the occurrence of clonic spasms persisting for at least 5 s.
# [3] = tested on: Metrazol seizure threshold; assay: Infusion of Metrazol (i.v. Met) seizure threshold test; type: in vivo, mice
# Protocol: The i.v. Met test provides a measure of a test substance's ability to raise or lower seizure threshold. Two doses of the test compound are usually employed in this test, the MES ED50 and the TD50 determined following i.p. quantification testing in mice. SKA-19 was accordingly tested at 5 and 30 mg/kg. Randomly selected mice (n=30) were injected i.p. 2 minutes apart with either the vehicle or the two test drug doses. At the previously determined TPE, 0.5% heparinized Metrazol solution was infused at a constant rate of 0.34 ml/min into a lateral tail vein. The time in seconds from the start of the infusion to the appearance of the “first twitch” and the onset of sustained clonus is recorded. The times to each endpoint are converted to mg/kg of Metrazol for each mouse as follows: mg/kg Met=Infusion time (T)×Rate of infusion (ml/min)×mg Met/ml×1000 g/60 sec×Weight (W) of animal in g=T×0.34×5×1000=28.33×T=mg/kg of Metrazol 60×W W. The mean and S.E. for each of the 3 groups and the significance of the difference between the test groups and the control are calculated.
# Nav1.4 = Nav1.4 (Homo sapiens (Human), UniProt P35499); assay: Voltage-clamp, Nav1.4 in HEK-293 cells; type: cell-based
# Protocol: (§3) All experiments were conducted at room temperature (22-24° C.) with an EPC-10 amplifier and Pulse software (HEKA, Lambrecht/Pfalz, Germany) in the whole-cell mode of the patch-clamp technique. Human embryonic kidney (HEK)-293 cell lines stably expressing hNav1.1, hNav1.5, hNav1.7 channels (generously provided by Dr. Christopher Lossin, University of California Davis), hNav1.4 (Frank Lehmann-Horn, University of Ulm), or hKv2.1 channels (James Trimmer, University of California Davis) were bathed in extracellular solution containing (in mM): 160 NaCl; 4.5 KCl; 1 MgCl2; 2 CaCl2; 10 HEPES [pH was adjusted to 7.4 using NaOH (310 mOsm)]. Pipettes were filled with intracellular solution containing (in mM): 145 KF; 2 MgCl2; 10 ethylene glycol tetraacetic acid; 10 HEPES (pH adjusted to 7.2 with KOH; 300 mOsm). Neuroblastoma N1E-115 cells (ATCC, Manassa, Va., USA) expressing Nav1.2 were patched with a CsF internal solution consisting of (in mM): 10 NaF; 110 CsF; 20 CsCl; 2 ethylene glycol tetraacetic acid; 10 HEPES (CsOH to pH 7.35; 300 mOsm). All pipette tip resistances were 2-4 MΩ. Series resistances of 3-10 MΩ were compensated 40-80%. All cells were voltage-clamped to a holding potential of −90 mV unless otherwise specified. The sampling frequency was 5 kHz. Na^+ currents were elicited by 30-ms pulse to 0 mV from −90 mV applied every 10 s. […]
# Nav1.3 = Nav1.3 (Homo sapiens (Human), UniProt Q9NY46); assay: Voltage-clamp, Nav1.3; type: cell-based; settings: read-out: EC50 or IC50, Nav1.3
# Nav1.5 = Nav1.5 (Homo sapiens (Human), UniProt Q14524); assay: Voltage-clamp, Nav1.5 in HEK-293 cells; type: cell-based
# Protocol: as §3
# MES-induced seizures = assay: Maximal electroshock (MES) seizure test, mice (ASP, methylcellulose suspension); type: in vivo
# Protocol: SKA-19 was tested under the auspices of the National Institutes of Health's Anticonvulsant Screening Program (ASP). Experiments were performed in male albino CF (Carworth Farms) No. 1 mice or Sprague-Dawley rats according to the established protocols of the ASP (White et al., 2002). SKA-19 was suspended in 0.5% methylcellulose and administered in a volume that permits accuracy of dosage without excessively contributing to total body fluid (0.01 ml/g body weight for mice and 0.04 ml/10 g body weight for rats).
# Animals received an electrical stimulus of 0.2 s duration (50 mA in mice and 150 mA in rat at 60 Hz) delivered via corneal electrodes primed with an electrolyte solution containing 0.5% tetracaine. Animals were restrained by hand and released immediately after stimulation to permit observation of the seizure throughout its entire course. In the initial screens to identify anticonvulsant activity mice were tested at 30 minutes and 4 hours following doses of 3, 10, 30, 100 and 300 mg/kg of SKA-19 and rats tested at time intervals between 0.25 and 4 hours following a standard oral dose of 30 mg/kg. In the subsequent, more quantitative tests at least four doses of SKA-19 (n=8 per dose) were tested at the previously determined time of peak effect (TPE). Abolition of hindlimb tonic extension indicates the test compound's ability to inhibit MES-induced seizure spread. Tonic extension is considered abolished if the hind limbs are not fully extended at 180° with the body.
# [4] = ASP anticonvulsant testing, suspension in 0.5% methylcellulose
# Sequence of Nav1.4 (P35499 whole entry): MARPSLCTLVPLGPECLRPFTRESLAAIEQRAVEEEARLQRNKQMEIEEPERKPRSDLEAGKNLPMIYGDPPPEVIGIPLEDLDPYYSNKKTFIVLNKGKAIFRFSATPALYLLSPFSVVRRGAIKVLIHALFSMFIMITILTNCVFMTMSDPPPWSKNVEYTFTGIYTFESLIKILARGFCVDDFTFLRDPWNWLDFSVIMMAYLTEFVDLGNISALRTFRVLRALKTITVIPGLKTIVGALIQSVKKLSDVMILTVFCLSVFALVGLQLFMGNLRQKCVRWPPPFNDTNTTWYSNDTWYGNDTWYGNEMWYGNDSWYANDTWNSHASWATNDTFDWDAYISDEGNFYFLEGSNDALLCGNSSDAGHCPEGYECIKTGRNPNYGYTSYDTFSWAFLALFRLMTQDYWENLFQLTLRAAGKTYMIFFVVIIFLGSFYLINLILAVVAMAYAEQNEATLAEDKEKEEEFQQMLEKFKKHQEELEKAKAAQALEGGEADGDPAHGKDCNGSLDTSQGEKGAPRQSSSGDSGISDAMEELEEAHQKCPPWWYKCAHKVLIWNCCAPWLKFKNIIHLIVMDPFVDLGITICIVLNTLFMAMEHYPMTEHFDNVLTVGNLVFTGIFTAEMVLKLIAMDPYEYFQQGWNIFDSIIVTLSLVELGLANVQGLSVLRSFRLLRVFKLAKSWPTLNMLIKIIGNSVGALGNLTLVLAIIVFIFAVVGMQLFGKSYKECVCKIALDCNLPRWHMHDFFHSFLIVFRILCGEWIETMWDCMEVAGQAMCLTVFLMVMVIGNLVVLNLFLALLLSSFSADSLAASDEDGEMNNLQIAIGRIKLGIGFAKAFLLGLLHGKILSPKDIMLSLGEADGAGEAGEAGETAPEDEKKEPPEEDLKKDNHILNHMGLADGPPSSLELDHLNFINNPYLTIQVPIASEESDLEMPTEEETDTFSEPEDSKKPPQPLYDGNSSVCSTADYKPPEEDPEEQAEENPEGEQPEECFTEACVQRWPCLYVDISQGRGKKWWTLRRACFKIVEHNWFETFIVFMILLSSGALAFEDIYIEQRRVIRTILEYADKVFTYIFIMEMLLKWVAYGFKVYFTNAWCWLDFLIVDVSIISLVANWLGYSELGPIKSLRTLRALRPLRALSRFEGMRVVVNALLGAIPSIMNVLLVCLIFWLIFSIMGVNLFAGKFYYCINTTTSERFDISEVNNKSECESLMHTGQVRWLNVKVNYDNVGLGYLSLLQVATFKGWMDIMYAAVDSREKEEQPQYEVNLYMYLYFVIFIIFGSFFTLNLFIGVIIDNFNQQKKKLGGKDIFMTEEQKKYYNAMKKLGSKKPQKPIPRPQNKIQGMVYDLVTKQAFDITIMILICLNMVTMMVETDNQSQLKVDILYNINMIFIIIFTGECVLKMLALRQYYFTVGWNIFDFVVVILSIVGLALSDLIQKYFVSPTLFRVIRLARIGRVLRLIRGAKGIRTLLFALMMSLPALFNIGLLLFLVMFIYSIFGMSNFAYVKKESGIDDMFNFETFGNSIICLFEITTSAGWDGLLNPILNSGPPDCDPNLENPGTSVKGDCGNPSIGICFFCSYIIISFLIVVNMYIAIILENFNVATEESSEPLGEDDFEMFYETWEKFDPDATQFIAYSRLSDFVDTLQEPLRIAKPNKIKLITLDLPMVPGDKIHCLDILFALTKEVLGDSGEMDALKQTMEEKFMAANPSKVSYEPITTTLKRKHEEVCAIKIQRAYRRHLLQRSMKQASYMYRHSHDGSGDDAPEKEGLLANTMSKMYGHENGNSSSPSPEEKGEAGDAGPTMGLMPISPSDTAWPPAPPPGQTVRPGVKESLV
# Sequence of Nav1.5 (Q14524 whole entry): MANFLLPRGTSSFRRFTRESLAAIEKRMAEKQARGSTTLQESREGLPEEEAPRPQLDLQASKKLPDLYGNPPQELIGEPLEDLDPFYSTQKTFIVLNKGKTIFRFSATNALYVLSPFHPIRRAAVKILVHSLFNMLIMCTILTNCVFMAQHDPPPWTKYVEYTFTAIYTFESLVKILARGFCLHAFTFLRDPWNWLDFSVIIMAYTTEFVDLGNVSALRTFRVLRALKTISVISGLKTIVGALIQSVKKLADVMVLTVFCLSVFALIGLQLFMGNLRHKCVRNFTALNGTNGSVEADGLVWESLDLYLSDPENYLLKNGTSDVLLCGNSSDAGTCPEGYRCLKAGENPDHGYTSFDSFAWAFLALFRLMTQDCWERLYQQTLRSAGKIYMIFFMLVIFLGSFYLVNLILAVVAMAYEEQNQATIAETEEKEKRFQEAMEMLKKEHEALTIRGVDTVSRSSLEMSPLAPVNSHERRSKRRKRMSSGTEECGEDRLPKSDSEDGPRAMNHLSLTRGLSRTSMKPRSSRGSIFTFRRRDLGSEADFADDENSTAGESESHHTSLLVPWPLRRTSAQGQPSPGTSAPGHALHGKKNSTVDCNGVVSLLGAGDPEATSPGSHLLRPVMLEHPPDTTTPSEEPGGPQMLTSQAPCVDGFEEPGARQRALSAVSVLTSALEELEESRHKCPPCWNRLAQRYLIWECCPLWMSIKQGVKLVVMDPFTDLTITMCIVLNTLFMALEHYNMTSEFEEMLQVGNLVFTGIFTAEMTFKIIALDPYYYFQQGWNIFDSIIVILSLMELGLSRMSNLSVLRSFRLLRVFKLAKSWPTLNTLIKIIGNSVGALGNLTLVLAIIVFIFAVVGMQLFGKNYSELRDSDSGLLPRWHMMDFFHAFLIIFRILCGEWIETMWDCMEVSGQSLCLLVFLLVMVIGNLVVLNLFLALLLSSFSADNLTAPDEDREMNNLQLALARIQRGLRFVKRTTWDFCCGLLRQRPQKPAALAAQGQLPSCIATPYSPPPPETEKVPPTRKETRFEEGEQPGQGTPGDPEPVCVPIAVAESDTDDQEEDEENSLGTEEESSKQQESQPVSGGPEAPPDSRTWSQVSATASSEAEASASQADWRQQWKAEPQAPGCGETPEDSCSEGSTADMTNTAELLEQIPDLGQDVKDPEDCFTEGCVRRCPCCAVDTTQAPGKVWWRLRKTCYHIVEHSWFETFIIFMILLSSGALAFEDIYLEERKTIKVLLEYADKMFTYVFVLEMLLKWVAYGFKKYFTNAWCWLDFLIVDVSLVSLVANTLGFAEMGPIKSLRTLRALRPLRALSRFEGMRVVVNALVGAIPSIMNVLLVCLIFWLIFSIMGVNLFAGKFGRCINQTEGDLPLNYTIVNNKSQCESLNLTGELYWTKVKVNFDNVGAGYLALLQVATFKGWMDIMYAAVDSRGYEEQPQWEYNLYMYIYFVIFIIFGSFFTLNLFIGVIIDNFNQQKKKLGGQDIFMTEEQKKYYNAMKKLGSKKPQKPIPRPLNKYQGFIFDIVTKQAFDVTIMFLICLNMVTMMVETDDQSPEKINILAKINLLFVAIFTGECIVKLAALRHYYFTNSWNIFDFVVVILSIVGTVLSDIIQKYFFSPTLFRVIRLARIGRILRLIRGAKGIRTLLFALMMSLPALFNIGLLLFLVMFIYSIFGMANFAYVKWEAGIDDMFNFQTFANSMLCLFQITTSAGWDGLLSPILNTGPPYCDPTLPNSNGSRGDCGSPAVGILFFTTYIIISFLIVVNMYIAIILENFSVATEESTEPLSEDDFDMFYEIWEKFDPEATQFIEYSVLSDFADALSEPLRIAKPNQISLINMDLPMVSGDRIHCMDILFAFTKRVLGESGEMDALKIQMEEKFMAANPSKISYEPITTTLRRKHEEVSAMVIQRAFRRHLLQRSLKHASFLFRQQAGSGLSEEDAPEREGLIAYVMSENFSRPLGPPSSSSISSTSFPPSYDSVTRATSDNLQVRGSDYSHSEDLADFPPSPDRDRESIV
smiles,measurement,setting,value
"Nc1nc2ccc(SC(F)(F)F)cc2s1 [SKA-19, 6-((trifluoromethyl)thio)benzo[d]thiazol-2-amine]",TD50 at 10 min,"[1]; CF-1, mouse",16.1 mg/kg
same,TD50 at 10 min,[1]; mouse,16.1 mg/kg
same,"TD50, neurological impairment (horizontal screen)",mice,16.33 mg/kg
same,death in the scMET test,[2]; 300 mg/kg,one animal treated with 300 mg/kg died
same,protection in the scMET test,[2]; 30 and 100 mg/kg,did not provide any protection
same,activity in the scMET test,"[2]; mouse, in vivo",no significant activity
same,time or metrazole dose to the first twitch or clonus,[3]; 5 mg/kg i.p.,did not change
same,proconvulsant action,[3]; 5 and 30 mg/kg i.p.,not proconvulsant
same,Metrazole dose to first clonus,[3]; SKA-19 30 mg/kg i.p.,37.2 ± 1.25 mg/kg
same,Metrazole dose to first twitch,[3]; SKA-19 30 mg/kg i.p.,31.6 ± 1.0 mg/kg
same,block of Nav1.4,Nav1.4,low micromolar range
same,IC50,"Nav1.4; read-out: EC50 or IC50, Nav1.4",4.5 ± 2.7 µM
same,IC50,Nav1.3,2.2 ± 1.1 µM
same,block of Nav1.5,Nav1.5,low micromolar range
same,IC50,"Nav1.5; read-out: EC50 or IC50, Nav1.5",5.8 ± 2.6 µM
same,duration of activity,MES-induced seizures; [4],4 h
same,time of peak activity / maximal effect,MES-induced seizures; [4],1 to 2 h
same,ED50,"MES-induced seizures; Mus musculus, ip, mice, i.p., methylcellulose suspension, time of peak effect (SKA-19: 2 h), read-out: ED50, seizure protection in the MES test",4.8 mg/kg
same,"protection in the MES model, initial screen","MES-induced seizures; mice, i.p., 3 mg/kg",partial protection
same,"protection in the MES model, initial screen","MES-induced seizures; mice, i.p., 10, 30 and 100 mg/kg",fully protected
same,protective index PI (TD50/ED50),"MES-induced seizures; mice, i.p., suspension",6.2
